Results taken from ChEMBL document CHEMBL1201862, “PubChem BioAssay data set” (2004).
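A five-concentration, 48-hour dose response in 96-well plates underlies each endpoint, interpolated linearly between surrounding concentrations. The concentration for 50% growth inhibition is given as GI50.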 Activity calls are given as the source filed them. Cut-off read from the data, not from the text of the source: active = GI50 up to about 1.1 µM and inactive = higher.

What was measured:
Experiment in all cases: NCI anticancer screen, dose series, 48 h
SK-OV-3 = test system: SK-OV-3
SK-MEL-28 = test system: SK-MEL-28
SK-MEL-2 = test system: SK-MEL-2
MOLT-4 = test system: MOLT-4
OVCAR-5 = test system: OVCAR-5
OVCAR-8 = test system: OVCAR-8
Malme-3M = test system: Malme-3M
HT-29 = test system: HT-29
U-251 = test system: U-251
KM-20L2 = test system: KM-20L2
LOX IMVI = test system: LOX IMVI
RXF 393 = test system: RXF 393
K562 = test system: K562
ACHN = test system: ACHN
IGROV-1 = test system: IGROV-1
SF-268 = test system: SF-268
NCI-H23 = test system: NCI-H23
HOP-92 = test system: HOP-92
NCI-H226 = test system: NCI-H226
SK-MEL-5 = test system: SK-MEL-5
SF-539 = test system: SF-539
LXFL 529 = test system: LXFL 529
DLD-1 = test system: DLD-1
SNB-78 = test system: SNB-78
M14 = test system: M14
CCRF-CEM = test system: CCRF-CEM
SW-620 = test system: SW-620
KM12 = test system: KM12
HOP-18 = test system: HOP-18
TK-10 = test system: TK-10
OVCAR-4 = test system: OVCAR-4
786-0 = test system: 786-0
XF498 = test system: XF498
M19-MEL = test system: M19-MEL
HL-60 = test system: HL-60
HCT-15 = test system: HCT-15
SN12C = test system: SN12C
UO-31 = test system: UO-31
HCC 2998 = test system: HCC 2998
CAKI-1 = test system: CAKI-1
RXF 631 = test system: RXF 631
DMS-114 = test system: DMS-114
SF-295 = test system: SF-295
NCI-H460 = test system: NCI-H460
NCI-H522 = test system: NCI-H522
HOP-62 = test system: HOP-62
HCT-116 = test system: HCT-116
OVCAR-3 = test system: OVCAR-3
RPMI-8226 = test system: RPMI-8226
SNB-19 = test system: SNB-19
UACC-257 = test system: UACC-257
UACC-62 = test system: UACC-62
A549 = test system: A549
EKVX = test system: EKVX
SNB-75 = test system: SNB-75
A498 = test system: A498
COLO 205 = test system: COLO 205
SR = test system: SR
DMS-273 = test system: DMS-273

`COc1ccc2c(c1)[n+]([O-])c(/C(C)=N/NC(=O)c1ccccc1O)c(C)[n+]2[O-]` was tested, and the GI50 (SK-OV-3) was > 100 µM (inactive), the GI50 (SK-MEL-28) was > 100 µM (inactive) and the GI50 (SK-MEL-2) was > 100 µM (inactive). For the same compound, the GI50 (MOLT-4) was > 100 µM (inactive), the GI50 (OVCAR-5) was > 100 µM (inactive) and the GI50 (OVCAR-8) was 97.9 µM (inactive). The GI50 (Malme-3M) was > 100 µM (inactive), the GI50 (HT-29) was > 100 µM (inactive) and the GI50 (U-251) was > 100 µM (inactive). The GI50 (KM-20L2) was > 100 µM (inactive), the GI50 (LOX IMVI) was > 100 µM (inactive) and the GI50 (RXF 393) was > 100 µM (inactive). The GI50 (K562) was > 100 µM (inactive), the GI50 (ACHN) was > 100 µM (inactive) and the GI50 (IGROV-1) was > 100 µM (inactive). For the same compound, the GI50 (SF-268) was > 100 µM (inactive), the GI50 (NCI-H23) was > 100 µM (inactive) and the GI50 (HOP-92) was > 100 µM (inactive). For the same compound, the GI50 (NCI-H226) was > 100 µM (inactive), the GI50 (SK-MEL-5) was > 100 µM (inactive) and the GI50 (SF-539) was > 100 µM (inactive). For the same compound, the GI50 (LXFL 529) was > 100 µM (inactive), the GI50 (DLD-1) was > 100 µM (inactive) and the GI50 (SNB-78) was > 100 µM (inactive). For the same compound, the GI50 (M14) was > 100 µM (inactive), the GI50 (CCRF-CEM) was > 100 µM (inactive) and the GI50 (SW-620) was > 100 µM (inactive). The GI50 (KM12) was > 100 µM (inactive), the GI50 (HOP-18) was > 100 µM (inactive) and the GI50 (TK-10) was > 100 µM (inactive). For the same compound, the GI50 (OVCAR-4) was > 100 µM (inactive), the GI50 (786-0) was > 100 µM (inactive) and the GI50 (XF498) was 81.5 µM (inactive). The GI50 (M19-MEL) was > 100 µM (inactive), the GI50 (HL-60) was > 100 µM (inactive) and the GI50 (HCT-15) was > 100 µM. For the same compound, the GI50 (SN12C) was > 100 µM (inactive), the GI50 (UO-31) was > 100 µM (inactive) and the GI50 (HCC 2998) was > 100 µM (inactive). For the same compound, the GI50 (CAKI-1) was > 100 µM (inactive), the GI50 (RXF 631) was > 100 µM (inactive) and the GI50 (DMS-114) was > 100 µM (inactive). The GI50 (SF-295) was > 100 µM (inactive), the GI50 (NCI-H460) was > 100 µM (inactive) and the GI50 (NCI-H522) was > 100 µM (inactive). For the same compound, the GI50 (HOP-62) was > 100 µM (inactive), the GI50 (HCT-116) was > 100 µM (inactive) and the GI50 (OVCAR-3) was > 100 µM (inactive). The GI50 (RPMI-8226) was > 100 µM (inactive), the GI50 (SNB-19) was > 100 µM (inactive) and the GI50 (UACC-257) was > 100 µM (inactive). For the same compound, the GI50 (UACC-62) was > 100 µM (inactive), the GI50 (A549) was > 100 µM (inactive) and the GI50 (EKVX) was > 100 µM (inactive).
`CC(C)CC(=O)NS(=O)(=O)c1ccccc1` was tested, and the GI50 (SK-OV-3) was > 100 µM (inactive), the GI50 (SK-MEL-28) was > 100 µM (inactive) and the GI50 (SK-MEL-2) was > 100 µM (inactive). The GI50 (MOLT-4) was > 100 µM (inactive), the GI50 (OVCAR-5) was > 100 µM (inactive) and the GI50 (OVCAR-8) was > 100 µM (inactive). For the same compound, the GI50 (Malme-3M) was > 100 µM (inactive), the GI50 (HT-29) was > 100 µM (inactive) and the GI50 (U-251) was > 100 µM (inactive). For the same compound, the GI50 (KM-20L2) was > 100 µM (inactive), the GI50 (LOX IMVI) was > 100 µM (inactive) and the GI50 (RXF 393) was > 100 µM (inactive). For the same compound, the GI50 (K562) was > 100 µM (inactive), the GI50 (ACHN) was > 100 µM (inactive) and the GI50 (IGROV-1) was > 100 µM (inactive). The GI50 (SF-268) was > 100 µM (inactive), the GI50 (NCI-H23) was > 100 µM (inactive) and the GI50 (HOP-92) was > 100 µM (inactive). For the same compound, the GI50 (NCI-H226) was > 100 µM (inactive), the GI50 (SF-539) was > 100 µM (inactive) and the GI50 (LXFL 529) was > 100 µM (inactive). For the same compound, the GI50 (DLD-1) was > 100 µM (inactive), the GI50 (SNB-78) was > 100 µM (inactive) and the GI50 (M14) was > 100 µM (inactive). The GI50 (CCRF-CEM) was > 100 µM (inactive), the GI50 (SW-620) was > 100 µM (inactive) and the GI50 (KM12) was > 100 µM (inactive). For the same compound, the GI50 (HOP-18) was > 100 µM (inactive), the GI50 (TK-10) was > 100 µM (inactive) and the GI50 (OVCAR-4) was > 100 µM (inactive). For the same compound, the GI50 (786-0) was > 100 µM (inactive), the GI50 (XF498) was > 100 µM (inactive) and the GI50 (M19-MEL) was > 100 µM (inactive). The GI50 (HL-60) was > 100 µM (inactive), the GI50 (HCT-15) was > 100 µM and the GI50 (SN12C) was > 100 µM (inactive). The GI50 (UO-31) was > 100 µM (inactive), the GI50 (HCC 2998) was > 100 µM (inactive) and the GI50 (CAKI-1) was > 100 µM (inactive). The GI50 (RXF 631) was > 100 µM (inactive), the GI50 (DMS-114) was > 100 µM (inactive) and the GI50 (SF-295) was > 100 µM (inactive). For the same compound, the GI50 (NCI-H460) was > 100 µM (inactive), the GI50 (NCI-H522) was > 100 µM (inactive) and the GI50 (HOP-62) was > 100 µM (inactive). For the same compound, the GI50 (HCT-116) was > 100 µM (inactive), the GI50 (SNB-75) was > 100 µM (inactive) and the GI50 (OVCAR-3) was > 100 µM (inactive). The GI50 (RPMI-8226) was > 100 µM (inactive), the GI50 (SNB-19) was > 100 µM (inactive) and the GI50 (A498) was > 100 µM (inactive). For the same compound, the GI50 (UACC-257) was > 100 µM (inactive), the GI50 (COLO 205) was > 100 µM (inactive) and the GI50 (UACC-62) was > 100 µM (inactive). The GI50 (SR) was > 100 µM (inactive), the GI50 (A549) was > 100 µM (inactive) and the GI50 (EKVX) was > 100 µM (inactive).
With `Cc1ccc(NC(=O)C2C(=O)N(c3ccc(C)c(C)c3)C(=O)/C2=N/O)cc1C` (configuration not stated) the GI50 (SK-OV-3) was > 100 µM (inactive), the GI50 (SK-MEL-28) was > 100 µM (inactive) and the GI50 (SK-MEL-2) was > 100 µM (inactive). The GI50 (MOLT-4) was > 100 µM (inactive), the GI50 (OVCAR-5) was > 100 µM (inactive) and the GI50 (OVCAR-8) was > 100 µM (inactive). For the same compound, the GI50 (Malme-3M) was > 100 µM (inactive), the GI50 (HT-29) was > 100 µM (inactive) and the GI50 (U-251) was > 100 µM (inactive). For the same compound, the GI50 (KM-20L2) was > 100 µM (inactive), the GI50 (LOX IMVI) was 20.9 µM (inactive) and the GI50 (RXF 393) was > 100 µM (inactive). The GI50 (K562) was > 100 µM (inactive), the GI50 (ACHN) was > 100 µM (inactive) and the GI50 (IGROV-1) was > 100 µM (inactive). The GI50 (SF-268) was > 100 µM (inactive), the GI50 (NCI-H23) was > 100 µM (inactive) and the GI50 (HOP-92) was > 100 µM (inactive). The GI50 (NCI-H226) was > 100 µM (inactive), the GI50 (SK-MEL-5) was > 100 µM (inactive) and the GI50 (SF-539) was > 100 µM (inactive). The GI50 (LXFL 529) was > 100 µM (inactive), the GI50 (DLD-1) was > 100 µM (inactive) and the GI50 (SNB-78) was > 100 µM (inactive). For the same compound, the GI50 (M14) was > 100 µM (inactive), the GI50 (CCRF-CEM) was > 100 µM (inactive) and the GI50 (SW-620) was 19.3 µM (inactive). For the same compound, the GI50 (KM12) was > 100 µM (inactive), the GI50 (HOP-18) was > 100 µM (inactive) and the GI50 (TK-10) was > 100 µM (inactive). For the same compound, the GI50 (786-0) was 68.1 µM (inactive), the GI50 (XF498) was > 100 µM (inactive) and the GI50 (HL-60) was > 100 µM (inactive). The GI50 (HCT-15) was > 100 µM, the GI50 (DMS-273) was > 100 µM (inactive) and the GI50 (SN12C) was > 100 µM (inactive). For the same compound, the GI50 (UO-31) was > 100 µM (inactive), the GI50 (HCC 2998) was > 100 µM (inactive) and the GI50 (CAKI-1) was > 100 µM (inactive). For the same compound, the GI50 (RXF 631) was > 100 µM (inactive), the GI50 (DMS-114) was > 100 µM (inactive) and the GI50 (SF-295) was > 100 µM (inactive). For the same compound, the GI50 (NCI-H460) was 44.7 µM (inactive), the GI50 (NCI-H522) was > 100 µM (inactive) and the GI50 (HOP-62) was > 100 µM (inactive). For the same compound, the GI50 (HCT-116) was > 100 µM (inactive), the GI50 (SNB-75) was > 100 µM (inactive) and the GI50 (OVCAR-3) was > 100 µM (inactive). For the same compound, the GI50 (RPMI-8226) was > 100 µM (inactive), the GI50 (SNB-19) was > 100 µM (inactive) and the GI50 (A498) was > 100 µM (inactive). For the same compound, the GI50 (UACC-257) was > 100 µM (inactive), the GI50 (COLO 205) was > 100 µM (inactive) and the GI50 (UACC-62) was > 100 µM (inactive). The GI50 (A549) was > 100 µM (inactive) and the GI50 (EKVX) was > 100 µM (inactive).
